Experimental data as given in publication PMC7669869, “AdipoR1/AdipoR2 dual agonist recovers nonalcoholic steatohepatitis and related fibrosis via endoplasmic reticulum-mitochondria axis” (Nature Communications, 2020).
Entries after “also recorded” stand apart in the source; their conditions may differ. Non-standard residues stand in square brackets, D forms with d. Residues, ends and D or L forms follow the SMILES beside them. Nva = CCC[C@H](N)C(=O)O

Key:
[1] = system: αSMA expression in LX2 cells; experiment: Western blotting for αSMA expression in LX2; assay type: cell-based, human; details: LX2, 200 μM peptide, 48 h; western blot; in words
Protocol: Hepatoma carcinoma cell line HepG2 and human hepatic activated stellate cell line LX2 used in this study were purchased from Type Culture Collection of the Chinese Academy of Sciences (Shanghai, China). Cells were cultured in Dulbecco’s modified Eagle’s medium (DMEM) with 10% fetal bovine serum (FBS), supplemented with 1% penicillin–streptomycin (ThermoFisher Scientific, USA) at 37 °C in a humidified atmosphere of 5% CO2. In PA (Sigma, USA) induced lipid accumulation cell model, HepG2 cells were seeded into a 6-well plate at 5E5 cells per well. 0.25 mM PA and/or 200 μM candidate peptides were co-incubated with cells for 24 h. Then Oil Red O staining was performed to evaluate the accumulation of lipid droplets. BSA (Sigma, USA) was used in this experiment as the negative control. […]
Total protein was isolated from cells or liver samples using RIPA lysis buffer (50.0 mM Tris-HCl (pH = 8.0), 150.0 mM NaCl, 0.02% NaN3, 0.1% SDS, 1% NP-40, 0.5% deoxysodium cholate, 1 mM EDTA, […]). The protein concentration was quantified with BCA kit (Pierce, ThermoFisher Scientific, USA). […] After incubation with the secondary antibody, proteins were detected by enhanced chemiluminescence (Glarity^TM Western ECL Substrate, Bio-Rad, USA) and the signals were recorded and quantified with Tanon-Image Software (Shanghai, China). […]

AdipoR2 = molecular target: T1, AdipoR2 (Homo sapiens, UniProt Q86V24); experiment: Competition binding assay vs globular adiponectin (western blot), AdipoR2 overexpression cells; details: JT003 4 h, then 50 μg ml−1 gAd155–161 4 h, in words
T1 construct: His; host or cells: HEK293
T1 sequence (Q86V24 1-386): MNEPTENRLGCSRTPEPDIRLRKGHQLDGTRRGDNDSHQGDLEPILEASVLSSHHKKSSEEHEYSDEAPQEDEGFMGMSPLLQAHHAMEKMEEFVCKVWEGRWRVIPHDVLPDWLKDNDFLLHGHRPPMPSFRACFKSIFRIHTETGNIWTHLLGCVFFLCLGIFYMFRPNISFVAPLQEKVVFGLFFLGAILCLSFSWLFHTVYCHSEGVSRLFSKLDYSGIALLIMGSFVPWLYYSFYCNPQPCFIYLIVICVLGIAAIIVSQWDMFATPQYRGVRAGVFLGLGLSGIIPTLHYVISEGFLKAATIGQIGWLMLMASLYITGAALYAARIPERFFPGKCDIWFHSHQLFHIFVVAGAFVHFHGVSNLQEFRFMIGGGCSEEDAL
Protocol: Different concentration of JT003 were incubated with AdipoR1 or AdipoR2 overexpression HEK293 cell line for 4 h. After that, 50 μg ml^−1 gAd155–161 were added for another 4 h incubation. The binding of gAd155–161 to the cells were measured via western blot assay.

[2] = system: AdipoR1 and AdipoR2 on HepG2 and LX2 cells; experiment: Cell confocal imaging, receptor binding of FITC labeled peptide (with AdipoR siRNA); design: species or system human; details: 37 °C, 2 or 4 h, AdipoR1/AdipoR2 siRNA as control, in words
Protocol: For in vitro receptor binding assay, 4E4 HepG2 cells or 2E4 LX2 cells were seeded on 35 mm glass bottom dish with 150 μL complete medium. Then cells were incubated with FITC labeled peptide for 4 h. The nuclei were stained with Hoechst 33342 (ThermoFisher, Scientific, USA). After washing with PBS, cells were visualized in a laser confocal microscope (Olympus FV3000, Japan). Cells with suppressed AdipoR1 and AdipoR2 expression with each specific siRNA were used as negative control.
AdipoR1 and AdipoR2 siRNA as well as mock siRNA were chemically synthesized (GenePharma, China) and transfected into 60–70% confluent HepG2 and LX2 cells using Lipofectamine 3000 (ThermoFisher Scientific, USA). Dilution of siRNA and Lipofectamine 3000 reagents as well as the transfection of cells were performed following the manufacturer’s protocol. For HepG2 cell model, 5E5 cells were plated in 6-well plates and transfected with 5 μL of 20 μM stock siRNA. At 48 h following transfection, the cells were processed for 0.25 mM PA and/or 200 μM JT003 treated for another 24 h. BSA was used as the negative control. For LX2 cell model, 2E5 cells were plated in 6-well plates and transfected with 5 μL of 20 μM stock siRNA. At 48 h following transfection, the cells were processed for JT003 or PBS treated for another 48 h. Next, cells were harvested for either western blot or qPCR assay.

CCC[C@H](NC(=O)[C@@H]1CCCN1)C(=O)N[C@@H](CC(C)C)C(=O)N[C@@H](Cc1ccc(O)cc1)C(=O)N[C@@H](Cc1ccc(O)cc1)C(=O)N[C@@H](Cc1ccccc1)C(=O)N[C@@H](C)C(N)=O [JT003] (H-P[Nva]LYYFA-NH2)
expression level of αSMA in LX2 cells [1]: significantly decrease; also recorded: showed the best performance in inhibiting fibroblast formation | competitive binding to globular adiponectin, AdipoR2 overexpression cells (AdipoR2): more JT003 cause less globular adiponectin binding | binding to AdipoRs on the cell membrane (confocal, FITC) [2]: could specifically bind to AdipoR1 and/or AdipoR2 on the cell membrane
